Measured values from patent publication US9864847B2, “Method for predicting the solubility of a molecule in a polymer at a given temperature” (priority 2014, dated 2018).

What was measured:
[1] = Difference in specific enthalpy and specific entropy (solid solution minus unmixed components) from DSC specific heats; format: physicochemical; conditions: indomethacin 2.5% by weight with PVP-K30
Description: In practice, there is a lower limit to the temperature at which thermal analysis instruments such as DSC can provide accurate experimental data. As a result, it is not possible to experimentally obtain the necessary specific heats over all temperatures down to absolute zero, but instead they only be evaluated to a minimum temperature, denoted by Tmin. The experimental data can be used to construct a temperature-dependent difference in specific heats, denoted as ΔCP, which is defined as the difference between the specific heat of the solid solution minus the specific heat of the unmixed components in the same ratio, over the temperature range of Tmin to any higher temperature T for which experimental specific heat data is available. This is given by Δ[…]) (29) Because of the thermal analysis instrument limitations, ΔCP provides no data between absolute zero and Tmin, so it is necessary to estimate the values of specific heat differences at temperatures below Tmin. One way to do this is to extrapolate the plot of the experimentally obtained ΔCP vs. the temperature from Tmin to absolute zero. This can be done as follows. • Obtain the experimental values for ΔCP from Tmin up to at least temperature Tat which the solubility of the drug in the polymer is to be evaluated. • Construct an approximating function Δc that is a function of the temperature, which will be used to estimate ΔCP at temperatures lower than Tmin. • Fit the function Δc to the experimental values of ΔCP from Tmin to T using any appropriate method, such as linear or nonlinear regression. • Using the fitted equation for Δc, calculate values of Δc over temperatures from absolute zero to Tmin. These values will be used as substitutes for experimental specific heat difference for temperatures below Tmin. There is no theoretical model or equation that dictates the mathematical form of Δc, and more than one functional form can be chosen. […] One preferred form would be a sum of a constant plus exponentials, such as Δ[…]) (30) where a0, a1 . . . a8 are temperature independent parameters with values that can be determined or fit by nonlinear regression or other methods so Eq. (30) will be a good approximation to the experimental ΔCP vs. temperature data over the experimental temperature range. […] (The value for a4 was not determined because the coefficient multiplying the exponential a3 was zero. […] Using the values Δc calculated from Eq. (34) for temperatures from 0 to […], and the experimental values of ΔCP, values of Δ[…] calculated from Eq. (31) and (32), respectively, for various temperatures. For this combination of indomethacin and PVP-K30, the calculated specific enthalpy values at -10° C. and 25° C.

[2] = indomethacin / PVP-K30 at 25° C.; cited from earlier work
[3] = 25° C.
Description: The drug indomethacin and the polymer PVP-K30 were taken in various ratios, corresponding to weight percentages of indomethacin in the mixture of 2.5%, 10%, 15%, and 20%. DSC was performed on the pure indomethacin and pure PVP-K30, and the specific heat for each was obtained as a function of the temperature over the range of 220K to 310K. The DSC instrument provided reliable data as low as 220K, which was taken as Tmin. Solid solutions were formed by mixing the drug and polymer in a mortar and pestle, allowing them to stand at 130° C. (403 K) for 5 days, then allowing them to cool to room temperature. DSC was also performed to determine the specific heat of the solid solutions from 220K to 300K. All DSC was performed using a pinhole in the lid and was thus considered open pan, so the specific heats were considered to be obtained at constant pressure. All heating and cooling rates were 5° C. per minute. […]
The entire procedure was repeated for each indomethacin-PVP combinations (2.5% m 10%, 15% and 20% indomethacin by weight), including obtaining the adjustable parameters a0, a1 . . . a8 for each indomethacin/PVP-K30 combination. […] The values of ΔgSS at 25° C. were calculated for each drug-polymer ratio from Eq. (33), and subsequently used to calculate values of ΔgSS/f0.

Δhheat (calculated specific enthalpy difference) ([1]; 25° C. (298 K)): 18.347 J/g
Δsheat (calculated specific entropy difference) ([1]; 25° C. (298 K)): 0.0787 J/K/g
Δhheat (calculated specific enthalpy difference) ([1]; −10° C. (263 K)): 9.66 J/g
Δsheat (calculated specific entropy difference) ([1]; −10° C. (263 K)): 0.0479 J/K/g
maximum stable weight fraction of indomethacin in PVP-K30 solid solution [3]: 15 % by weight
indomethacin weight fraction at minimum of ΔgSS/f0 ([3]; PVP-K30, FIG. 4): approximately 0.15
SMILES: COc1ccc2c(c1)c(CC(=O)O)c(C)n2C(=O)c1ccc(Cl)cc1 [indomethacin]
interaction parameter χ [2]: 0.747
